Where a name gives a salt, the structure may show the parent alone. Calls of active or inactive are those of the source. The calls are words filed in the database; no cut-off is given here.
Molecular target: Matrix metalloproteinase-14 (Homo sapiens, UniProt P50281)
Test: Inhibition of truncated recombinant MT1-MMP expressed in Escherichia coli JM109 after 1 hr by fluorescence assay

Row | IC50 [µM] | Activity | SMILES
1 | 31.2 |  | CCCCCC/C=C\CCCCCCCCCCCCC#C[C@@H](OS(=O)(=O)O)C(=O)O [CALLYSPONGINOL SULFATE A]
2 | 25.2 |  | CC(CC[C@@H](C)[C@H]1CC[C@H]2[C@@H]3C[C@H](OS(=O)(=O)O)[C@H]4C[C@H](OS(=O)(=O)O)[C@@H](OS(=O)(=O)O)C[C@]4(C)[C@H]3CC[C@]12C)C(C)(C)C (stereo partly drawn) [HALISTANOL SULFATE]
3 |  | inactive | CCCCCC/C=C\CCCCCCCCCCCCC#C[C@@H](O)C(=O)O

Source: ChEMBL document CHEMBL1159374, “Callysponginol sulfate A, an MT1-MMP inhibitor isolated from the marine sponge Callyspongia truncata” (J Nat Prod, 2003)
